The text below walks through data of patent publication US20240294470A1, “FRAGRANCE COMPOUNDS” (Givaudan SA, priority 2021, published 2024).

The nature of series [1]: Biodegradability by manometric respirometry test (OECD guideline No. 301F). Particulars: OECD 301F manometric respirometry; oxygen consumption of theory. The source says: The results of the biodegradability assessment by the manometric respirometry test (OECD guideline for the testing of materials No. 301F, Paris 1992) are summarized in Table 2.
A compound can be classified biodegradable, if it reaches the pass level of 60% oxygen consumption of theory required for complete mineralization.
It is readily biodegradable, if the pass level is reached within 10 days within the 28-day period of the test. The 10-day window begins when the degree of biodegradation has reached 10%.
If the pass level is obtained after 28-day period of the test, the compound can be classified as inherently biodegradable.

Series [2] can be described thus: Application in shampoo: odour intensity and quality on dry hair swatches, assessed by expert panel. Particulars: 0.2% wt/wt in shampoo. How it is done: • 1) Sample preparation: 0.2% wt/wt of (E)-N-isopropyl-2-methylundecan-1-imine oxide (compound of example 9) was incorporated in unperfumed shampoo base by magnetic stirring at room temperature for 24 h. • 2) Wash test: Hair swatches were wetted with warm tap water, then 2 mL of the above prepared shampoo sample was applied to the hair swatches lathering with gloves delicately for 30 seconds. The hair swatches were rinsed with cold tap water for 20 seconds and excess water was removed by squeezing the hair swatches between two fingers. The hair swatches were left to dry in open air. Their odour intensity and quality was assessed by a panel of 4-6 experts after 1 and 2 days on an intensity scale of 0 (odourless) to 5 (extremely strong). • 3) Results: After 1 day, the fragrance score was 3.2, after 2 days, the fragrance score was 3.3.

Series [3] can be described thus: Wash test in liquid detergent: odour intensity and quality on line-dried fabric, assessed by expert panel. The settings on record: for Fragrance score after 1 day / Fragrance score after 3 days: line-dried cotton/elastane fabric, panel of 4-6 experts, scale 0 (odourless) to 5 (extremely strong); for Odour intensity on dried fabric over time (FIG. 1): 0.2% by weight in liquid detergent, 40° C. wash, fresh dried, after 24 hours and after four days, scale 0 to 5. How it is done: A Nitrone precursor (Sample A: (E)-2-methyl-N-(4-methylbenzyl)undecan-1-imine oxide, compound of Example 1) has been compared to the aldehyde (Sample B: 2-methyl undecanal) in a wash test. • 1) Sample preparation: 0.2% by weight of the precursor or the aldehyde have been incorporated into unperfumed liquid detergent base by magnetic stirring at room temperature for 24 h., • 2) Wash test: A 40° C. machine wash cycle was performed using 55 g of the liquid detergent sample containing the test material and odour-neutral cotton/elastan mixed fabric T-shirts. […]
Further compounds of formula (I) have been tested in liquid detergent. • 1) Sample preparation: 0.2% wt/wt of the test material was incorporated in unperfumed liquid detergent base by magnetic stirring at room temperature for 24 h. • 2) Wash test: a 40° C. machine wash cycle was performed using 55 g of the liquid detergent sample containing the test material and odour-neutral cotton/elastane mixed fabric T-shirts. The wet fabric is line-dried and odour intensity and quality are assessed by a panel of 4-6 experts after 1 and 3 days on an intensity scale of 0 (odourless) to 5 (extremely strong).

The nature of series [4]: Stability test in liquid detergent base by quantitative HPLC with UV detection. The series is classed as physicochemical. How it is done:
Example 61: Stability test in liquid detergentThe stability of (E)-N-isopropyl-2-methylundecan-1-imine oxide (compound of Example 9) in a liquid detergent base was assessed by quantitative HPLC with UV detection.
A liquid detergent sample as prepared above containing the test substance was sampled at TO and after 30 days storage at 37° C. (300 mg diluted with 10 mL acetonitrile/high purity water 1:1), and the concentration of the precursor was assessed by quantitative HPLC-UV using an external calibration curve.

[5] abbreviates: 0.2% wt/wt in liquid detergent, 40° C. machine wash.

With `CCCCCCCCCC(C)/C=[N+](/[O-])Cc1ccccc1` (stereo not shown) [Example 5, (E)-N-benzyl-2-methylundecan-1-imine oxide], the Biodegradation in % in series [1] turned out to be 87%.

With `CCCCCCCCCC(C)/C=[N+](/[O-])C(C)C` (stereo not shown) [Example 9, (E)-N-isopropyl-2-methylundecan-1-imine oxide], in series [2], the “Perceived odour on dry hair” value is listed as “clean, aldehydic”. Moreover, the “Fragrance score after 1 day” value in series [2] (panel of 4-6 experts, scale 0 (odourless) to 5 (extremely strong), after 1 day) amounted to 3.2; in series [3] (setting [5]), 2.4. The “Fragrance score after 2 days” value in series [2] (panel of 4-6 experts, scale 0 (odourless) to 5 (extremely strong), after 2 days) worked out at 3.3. Further, in series [3] (setting [5]), the “Fragrance score after 3 days” value was determined as 3.2. The compound also registered a Biodegradation in % in series [1] of 70%. The “Stability in liquid detergent (judgement)” value in series [4] (30 days storage at 37° C., alkaline liquid detergent) is given as “stable”. Moreover, the “Concentration of the precursor in liquid detergent, initial” value in series [4] (liquid detergent base, T0, HPLC-UV) is on record as 0.21 weight %. The “Concentration of the precursor in liquid detergent after storage” value in series [4] (liquid detergent base, after 30 days storage at 37° C., HPLC-UV) came to 0.18 weight %.

For the compound `CCCCCCCCC/C=C/C=[N+](\[O-])Cc1ccccc1` [Example 49, (1Z,2E)-N-benzyldodec-2-en-1-imine oxide], in series [3] (setting [5]), the “Fragrance score after 1 day” value was found to be 2.9 and the “Fragrance score after 3 days” value amounted to 3.0.

On to `CCCCCCCCCC(C)/C=[N+](/[O-])C1CCCCC1` (stereo not shown) [Example 6, (E)-N-cyclohexyl-2-methylundecan-1-imine oxide], for which, in series [1], the Biodegradation in % is on record as 74%.

With `CC1=C(/C=C/C(C)=[N+](/[O-])C(C)C)C(C)(C)CCC1` [Example 10, (2E,3E)-N-isopropyl-4-(2,6,6-trimethylcyclohex-1-en-1-yl)but-3-en-2-imine oxide], in series [3] (setting [5]), the “Fragrance score after 1 day” value is recorded as 2.3 and the “Fragrance score after 3 days” value came out at 2.2. In addition, the “Odour on dry fabric” value in series [3] (0.2% wt/wt in liquid detergent, 40° C. machine wash, line-dried fabric, odour quality by panel) was “ionone”.

Take `CCCCCCCCCC(C)/C=[N+](\C)[O-]` (stereo not shown) [Example 13, (E)-N,2-dimethylundecan-1-imine oxide]: in series [1], the Biodegradation in % stood at 89%.

For the compound `CCCCCCCCCC(C)/C=[N+](/[O-])Cc1ccc(C)cc1` (stereo not shown) [Example 1, (E)-2-methyl-N-(4-methylbenzyl)undecan-1-imine oxide], the “Odour intensity on dried fabric over time (FIG. 1)” value in series [3] is “increases with time and is the highest after four days”. Further, in series [1], the Biodegradation in % worked out at 83%.

With `CCCCCCCCCC(C)C=O` (stereo not shown) [Sample B, 2-methyl undecanal, reference compound], in series [3], the “Odour intensity on dried fabric over time (FIG. 1)” value is “relatively high on the freshly dried sample and decreases with time”.

`CCCCCCCCCC(C)/C=[N+](/[O-])Cc1ccc(OC)cc1` (stereo not shown) [Example 58, (E)-N-(4-methoxybenzyl)-2-methylundecan-1-imine oxide] displayed a Biodegradation in % in series [1] of 76%.

`CCCCCCCCCC(C)/C=[N+](/[O-])CC(C)CCC` (stereo not shown) [Example 15, (E)-2-methyl-N-(2-methylpentyl)undecan-1-imine oxide] showed a Biodegradation in % in series [1] of 75%.
